Results from the CheMixHub viscosity set.

Experiment: xn = mol fraction of the nth substance listed

Cc1c[nH]c(=O)[nH]c1=O + O
viscosity [mPa·s], 101.3 kPa
Settings	293.15 K	298.15 K	303.15 K	308.15 K	313.15 K	318.15 K
x1 = 0.000119	1.006	0.895	0.803	0.738	0.623	0.595
x1 = 0.000164	–	0.893	–	0.722	–	0.598
x1 = 0.0001877	1.008	0.897	0.805	0.74	0.625	0.597
x1 = 0.000266	–	0.895	–	0.723	–	0.6
x1 = 0.0003006	1.01	0.899	0.807	0.742	0.627	0.599
x1 = 0.0003339	–	0.896	–	0.724	–	0.6
x1 = 0.0003713	–	0.896	–	0.724	–	0.601
x1 = 0.0003733	1.012	0.901	0.809	0.744	0.629	0.601
x1 = 0.0004194	–	0.897	–	0.725	–	0.601
x1 = 0.0004572	1.014	0.903	0.811	0.746	0.631	0.603
x1 = 0.0004811	–	0.898	–	0.726	–	0.602
x1 = 0.0005454	1.016	0.905	0.813	0.748	0.633	0.605

CCOc1ccccc1 + CCO
298.15 K, 101 kPa
Settings	viscosity [mPa·s]
x2 = 0.3183	1.067
x2 = 0.5186	1.035
x2 = 0.6605	1.01
x2 = 0.764	0.997
x2 = 0.8437	0.991
x2 = 0.9064	1
x2 = 0.9609	1.035

CCOc1ccccc1 + c1ccccc1
viscosity [mPa·s], 101.33 kPa
Settings	298.15 K	323.15 K
x1 = 0.2	0.68	0.49
x1 = 0.5	0.823	0.576

CCCCCCC(=O)O + ClC(Cl)(Cl)Cl
298.15 K, 101 kPa
Settings	viscosity [mPa·s]
x1 = 0.06	0.99
x1 = 0.12	1.08
x1 = 0.17	1.175
x1 = 0.23	1.271
x1 = 0.44	1.767
x1 = 0.54	2.046
x1 = 0.64	2.362
x1 = 0.83	3.015

CCOc1ccccc1 + CCCCCCO
viscosity [mPa·s], 101.3 kPa
Settings	x1 = 0.1009	x1 = 0.1998	x1 = 0.2997	x1 = 0.3996	x1 = 0.5031	x1 = 0.6005	x1 = 0.7003	x1 = 0.8012	x1 = 0.9001
293.15 K	4.148	3.239	2.559	2.075	1.745	1.557	1.458	1.407	1.38
298.15 K	3.444	2.764	2.253	1.872	1.586	1.392	1.293	1.246	1.237
308.15 K	2.831	2.252	1.807	1.482	1.248	1.103	1.033	1.001	0.9927
318.15 K	2.142	1.72	1.388	1.153	0.9975	0.9133	0.8619	0.8367	0.8214

CCOc1ccccc1 + Nc1ccccc1
viscosity [mPa·s], 101 kPa
Settings	x1 = 0.09206	x1 = 0.1748	x1 = 0.2667	x1 = 0.3716	x1 = 0.4789	x1 = 0.5934	x1 = 0.7132	x1 = 0.8542
293.35 K	3.64	3.17	2.75	2.39	2.1	1.84	1.63	1.428
302.75 K	2.7	2.38	2.115	1.87	1.67	1.495	1.335	1.169
313.15 K	2.08	1.865	1.675	1.5	1.355	1.225	1.106	0.982

CCCCCCCCn1cc[n+](C)c1.[Cl-] + CCO
Settings	viscosity [mPa·s]
298.15 K, 101 kPa, x2 = 0.1305	5426

CCOc1ccccc1 + CCOCC
298.15 K, 101 kPa
Settings	viscosity [mPa·s]
x2 = 0.0745	1.027
x2 = 0.0975	0.9993
x2 = 0.1855	0.8671
x2 = 0.2523	0.7856
x2 = 0.3026	0.7152
x2 = 0.3516	0.6667
x2 = 0.4501	0.5713
x2 = 0.5106	0.5154
x2 = 0.5579	0.4809
x2 = 0.6048	0.4406
x2 = 0.6882	0.3866
x2 = 0.7485	0.3494
x2 = 0.8303	0.3057
x2 = 0.9004	0.2674

CCCCCCCCCCCCBr + BrC(Br)C(Br)Br
101 kPa
Settings	viscosity [mPa·s]
298.08 K, x1 = 0.1586	7.196
298.08 K, x1 = 0.3004	5.936
298.08 K, x1 = 0.4493	5.091
298.08 K, x1 = 0.6166	4.392
298.08 K, x1 = 0.7772	3.877
303.1 K, x1 = 0.1376	6.506
303.1 K, x1 = 0.2855	5.399
303.1 K, x1 = 0.4255	4.58
303.1 K, x1 = 0.6541	3.787
303.1 K, x1 = 0.7773	3.437
308.11 K, x1 = 0.1363	5.669
308.11 K, x1 = 0.289	4.673
308.11 K, x1 = 0.4415	4.027
308.11 K, x1 = 0.6215	3.498
308.11 K, x1 = 0.7595	3.147
313.11 K, x1 = 0.1456	5.011
313.11 K, x1 = 0.2924	4.238
313.11 K, x1 = 0.4286	3.667
313.11 K, x1 = 0.634	3.093
313.11 K, x1 = 0.782	2.781

CCCCCCCCn1cc[n+](C)c1.[Cl-] + CN1CCCC1=O
100 kPa
Settings	viscosity [mPa·s]
293.15 K, x1 = 0.2805	26.15
308.15 K, x1 = 0.3657	33.55
308.15 K, x1 = 0.4679	67.15
318.15 K, x1 = 0.4679	43.25

COC(=O)CC(C)=O + CCCCCO
viscosity [mPa·s], 101.33 kPa
Settings	x1 = 0.1031	x1 = 0.2056	x1 = 0.3072	x1 = 0.4083	x1 = 0.5091	x1 = 0.6099	x1 = 0.7075	x1 = 0.8063	x1 = 0.9019
298.15 K	2.467	2.053	1.796	1.637	1.52	1.439	1.408	1.408	1.449
303.15 K	2.156	1.809	1.588	1.453	1.356	1.294	1.268	1.275	1.313
308.15 K	1.903	1.606	1.419	1.3	1.223	1.175	1.156	1.164	1.201

COC(=O)CC(C)=O + CCO
viscosity [mPa·s], 101.3 kPa
Settings	x1 = 0.1051	x1 = 0.204	x1 = 0.3085	x1 = 0.4046	x1 = 0.507	x1 = 0.607	x1 = 0.7033	x1 = 0.8022	x1 = 0.902
298.15 K	0.96	0.942	0.965	0.995	1.057	1.121	1.202	1.3	1.422
303.15 K	0.879	0.866	0.883	0.913	0.968	1.027	1.099	1.187	1.294
308.15 K	0.806	0.798	0.814	0.841	0.892	0.946	1.011	1.092	1.186
